Read-outs that look alike come from different tables or passages of the source.
Legend:
Assay type in all cases: cell-based
[1] = test system: HEK293 cells (ATCC CRL-1573); assay: Cellular growth inhibition assay, HEK293 cells (Example 16); conditions: Homo sapiens, 72 hours, CellTiter-Glo 2.0
HeLa cells (ATCC CCL-2) = assay: Cellular growth inhibition assay, HeLa cells (Example 16); conditions: Homo sapiens, 72 hours, CellTiter-Glo 2.0
GSPT1 = assay: Payload release assay (DC50 readout), GSPT1 degradation in the presence of recombinant target protein; conditions: I-series compounds (GSPT1 readout inferred)
KRAS G12C = KRAS G12C (Homo sapiens, UniProt P01116, G12C); assay: KRAS G12C cellular target engagement assay (SW1573 cells); set-up: host or cells: SW1573; conditions: 17 hours, read-out: TE50 (the source's name)
KRAS G12C, sequence (P01116 1-188 isoform P01116-2 G12C): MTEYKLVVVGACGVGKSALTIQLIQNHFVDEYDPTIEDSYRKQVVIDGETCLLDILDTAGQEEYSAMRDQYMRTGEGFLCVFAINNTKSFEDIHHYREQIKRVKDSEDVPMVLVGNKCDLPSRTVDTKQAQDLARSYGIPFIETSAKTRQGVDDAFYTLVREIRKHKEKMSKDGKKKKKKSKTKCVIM
Procedure: SW1573 cells (ATCC CRL-2170) were cultured in RPMI 1640 (Gibco A1049101), supplemented with 10% Heat-inactivated FBS (Gibco Cat. #A38400-01) and 1% Penicillin/Streptomycin (Gibco Cat. #15140-122) in an incubator set at 37° C. and 5% CO2. Cells were seeded at 100,000 cells/ml in 1 ml of complete media in a 24-well, tissue culture-treated plate (Falcon 353226) and incubated overnight. Cells were treated with increasing concentrations of compound and let incubate at 37C and 5% CO2 for 17 hours, after which media was aspirated and cells were lysed in 75 uL RIPA Lysis and Extraction Buffer (Thermo 89901) supplemented with 5 mM MgCl2, Protease and Phosphatase inhibitor cocktail (Thermo 1861281), and Universal Nuclease (Thermo 88700). Plates with RIPA were shaken at 4° C. at 600 rpm for 15 min. After shaking samples, they were collected and spun down at 21,000 g for 15 min at 4° C. Following centrifugation, ˜10 ug of lysate was added to Laemmli Sample Buffer (Bio-Rad 1610747) plus 10% beta-mercaptoethanol, boiled for 15 minutes at 65° C. and loaded onto 12% Mini-PROTEAN TGX™ Precast Protein Gels (Bio-Rad). Protein was transferred to a nitrocellulose membrane (Thermo LC2000) using the iBlot 2 Dry Blotting System (Thermo). After transfer, membranes were washed in 1× TBST (Bioland Scientific LLC TBST0103) 3× for 5 min. Following the wash, blocking buffer (Rockland MB-070) was added for 1 hour at room temperature. Primary antibodies against KRAS (LifeSpan Bio LS-C175665) and actin (Cell Signaling Technology 8457) were added overnight at 4° C. Membranes were then washed again 3× for 5 min in 1× TBST. Secondary antibodies (LI-COR 926-68072 and 926-68073) were added and shaken for 1 hr at room temperature. Membranes were then washed 3× for 5 min in 1×TBST and developed. Membranes were placed on an Odyssey imager (LI-COR).

[2] = 0 μM recombinant KRAS G12C, read-out: DC50 at 0 μM KRAS G12C
[3] = 5 μM recombinant KRAS G12C, read-out: DC50 at 5 μM KRAS G12C

Row | SMILES | GI50 [1] | GI50 (HeLa cells (ATCC CCL-2)) | DC50 (GSPT1; [2]) | DC50 (GSPT1; [3]) | EC50 (KRAS G12C)
1 | C=C(COc1cc(Cl)cc(NC(=O)NCc2ccc3c(c2F)CN(C2CCC(=O)NC2=O)C3=O)c1)C(=O)N1CCN(c2nc(OC[C@@H]3CCCN3C)nc3c2CCN(c2cccc4cccc(Cl)c24)C3)C[C@@H]1CC#N (some centres unmarked) [Compound I-116] | 1.5 to 10 µM | > 10 µM | 0.25 to 5 µM | < 0.25 µM | < 0.25 µM
2 | C=C(COc1ccc(CN2C(=O)CCC(N3Cc4cc(CNC(=O)Nc5ccc(C)c(Cl)c5)ccc4C3=O)C2=O)cc1)C(=O)N1CCN(c2nc(OC[C@H]3CCCN3C)nc3c2CCN(c2cccc4cccc(Cl)c24)C3)C[C@@H]1CC#N (stereo in doubt) [Compound I-44] | > 10 µM | > 10 µM | > 10 µM | 0.25 to 5 µM | 0.25 to 5 µM
3 | C=C(COc1cc(Cl)cc(NC(=O)NCc2ccc3c(c2)CN(C2CCC(=O)NC2=O)C3=O)c1)C(=O)N1CC2(CC(n3nc(-c4ccc5c(cnn5C)c4)c(-c4c(Cl)c(C)cc5[nH]ncc45)c3C)C2)C1 (centres unmarked) [Compound I-56] | 0.5 to 1.5 µM | < 0.5 µM | < 0.25 µM | < 0.25 µM | 5 to 10 µM
4 | C=C(COc1cc(NC(=O)NCc2ccc3c(c2)CN(C2CCC(=O)NC2=O)C3=O)ccc1OC)C(=O)N1CCN(c2nc(OC[C@@H]3CCCN3C)nc3c2CCN(c2cccc4cccc(Cl)c24)C3)C[C@@H]1CC#N (some centres unmarked) [Compound I-89] | > 10 µM | > 10 µM | 0.25 to 5 µM | > 10 µM | 0.25 to 5 µM
5 | C=C(COC(=O)c1c(C)csc1NC(=O)NCc1ccc2c(c1)CN(C1CCC(=O)NC1=O)C2=O)C(=O)N1CCN(c2nc(OC[C@@H]3CCCN3C)nc3c2CCN(c2cccc4cccc(Cl)c24)C3)C[C@@H]1CC#N (stereo partly drawn) [Compound I-72, 2-[(2S)-4-[7-(8-chloro-1-naphthyl)-2-[[(2S)-1-methylpyrrolidin-2-yl]methoxy]-6,8-dihydro-5H-pyrido[3,4-d]pyrimidin-4-yl]-2-(cyanomethyl)piperazine-1-carbonyl]allyl 2-[[2-(2,6-dioxo-3-piperidyl)-1-oxo-isoindolin-5-yl]methylcarbamoylamino]-4-methyl-thiophene-3-carboxylate] | 1.5 to 10 µM | 1.5 to 10 µM | > 10 µM | 0.25 to 5 µM | 5 to 10 µM
6 | C=C(COc1cc(F)c(F)cc1NC(=O)NCc1ccc2c(c1)CN(C1CCC(=O)NC1=O)C2=O)C(=O)N1CCN(c2nc(OC[C@@H]3CCCN3C)nc3c2CCN(c2cccc4cccc(Cl)c24)C3)C[C@@H]1CC#N (some centres unmarked) [Compound I-62] | > 10 µM | > 10 µM | 0.25 to 5 µM | < 0.25 µM | 0.25 to 5 µM
7 | C=C(COc1cc(NC(=O)NCc2ccc3c(c2)CN(C2CCC(=O)NC2=O)C3=O)cc(OC)c1)C(=O)N1CCN(c2nc(OC[C@@H]3CCCN3C)nc3c2CCN(c2cccc4cccc(Cl)c24)C3)C[C@@H]1CC#N (some centres unmarked) [Compound I-50] | > 10 µM | > 10 µM | 0.25 to 5 µM | 0.25 to 5 µM | 0.25 to 5 µM
8 | C=C(COc1c(CNC(=O)Nc2ccc(C)c(Cl)c2)ccc2c1CN(C1CCC(=O)NC1=O)C2=O)C(=O)N1CCN(c2nc(OC[C@@H]3CCCN3C)nc3c2CCN(c2cccc4cccc(Cl)c24)C3)C[C@@H]1CC#N (some centres unmarked) [Compound I-90] | < 0.5 µM | > 10 µM | < 0.25 µM | < 0.25 µM | < 0.25 µM
9 | C=C(COc1cc(Cl)cc(NC(=O)NCc2ccc3c(c2)CN(C2CCC(=O)NC2=O)C3=O)c1)C(=O)N1CCN(c2nc(OC[C@@H]3CCCN3C)nc3c2CCN(c2cccc4cccc(Cl)c24)C3)C[C@@H]1CC#N (some centres unmarked) [Compound I-35] | 1.5 to 10 µM | 1.5 to 10 µM | 0.25 to 5 µM | < 0.25 µM | 0.25 to 5 µM
10 | C=C(COc1cc(Cl)c(OC)cc1NC(=O)NCc1ccc2c(c1)CN(C1CCC(=O)NC1=O)C2=O)C(=O)N1CCN(c2nc(OC[C@@H]3CCCN3C)nc3c2CCN(c2cccc4cccc(Cl)c24)C3)C[C@@H]1CC#N (some centres unmarked) [Compound I-46] | 0.5 to 1.5 µM | > 10 µM | 0.25 to 5 µM | < 0.25 µM | 0.25 to 5 µM

Reference: patent publication US20240408093A1, “HETEROBIFUNCTIONAL COMPOUNDS AND THEIR USE IN TREATING DISEASE” (HALDA THERAPEUTICS OPCO, INC., priority 2022, published 2024)
